Common to all, as to assay: DTP human tumour cell line panel, 48 h
Experiment [1] deals with BT-549.
For experiment [2], the system named is SN12C.
The test system of experiment [3] is OVCAR-8.
Experiment [4] deals with UACC-257.
Experiment [5] relates to DU-145.
The test system of experiment [6] is SW-620.
Experiment [7] relates to SK-MEL-28.
Experiment [8] has as its system K562.
For experiment [9], the system named is NCI-H522.
For experiment [10], the system named is SNB-19.
Experiment [11] concerns UACC-62.
The subject of experiment [12] is SF-268.
The test system of experiment [13] is SK-MEL-5.
In experiment [14] the test system is NCI-H460.
The subject of experiment [15] is OVCAR-5.
Experiment [16] deals with U-251.
Experiment [17] relates to EKVX.
Experiment [18] has as its system NCI/ADR-RES.
Experiment [19] deals with HCT-116.
The test system of experiment [20] is SF-539.

Values joined by “and” are separate entries in the source; they are usually repeats but may differ in a detail not shown here. Equal entries are not always repeated.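 Tested at 5 concentrations; 48 h exposure; 96-well plates; endpoints linearly interpolated, else capped at highest concentration. GI50 marks 50% less growth.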 Active and inactive are the calls of the source. Cut-off read from the data, not from the text of the source: active = GI50 up to about 1.1 µM and inactive = higher. Some results are limits rather than exact numbers.

For `O=C1CC(Br)c2c(Cl)sc(Cl)c21` (stereo not drawn), the GI50 was 20.8 µM (inactive) in [1]; 14.1 µM (inactive) in [2]; 3.1 µM (inactive) in experiment [3]; 4 µM (inactive) in experiment [4]; 17 µM (inactive) in [5]; 1.84 µM (inactive) in [6]. Also, the GI50 is 13.6 µM (inactive) in experiment [7]; 2.17 µM (inactive) in [8]; 17 µM (inactive) in experiment [9]; 19.3 µM (inactive) in [10]; 11.8 µM (inactive) in experiment [11]; 6.58 µM (inactive) in experiment [12]. Besides, the GI50 was 17.6 µM (inactive) in experiment [13]; 18.2 µM (inactive) in experiment [14]; 18 µM (inactive) in [15]; 3.37 µM (inactive) in experiment [16]; 17.5 µM (inactive) in experiment [17]; 24 µM (inactive) in [18]. Besides, the GI50 in [19] was 4.56 µM (inactive); in experiment [20], 8.3 µM (inactive).
With `CC(C)c1ccc2c(c1)/C(=C1/Nc3ccccc3/C1=N/O)C(=O)N2`, the GI50 is 7.13 µM (inactive) in experiment [1]; 5.22 µM (inactive) in experiment [2]; 2.79 µM (inactive) in experiment [3]; 12.1 µM (inactive) in [4]; 6.07 µM (inactive) in experiment [5]; 5.11 µM (inactive) in experiment [6]. Besides, the GI50 in experiment [7] was 13.5 µM (inactive); in experiment [8], 4.07 µM (inactive); in [9], 4.06 µM (inactive); in [10] it was 16.4 µM (inactive); in [11], 8.57 µM (inactive); in experiment [12] it was 7 µM (inactive). The GI50 in experiment [13] is 3.82 µM (inactive); in [14], 4 µM (inactive); in experiment [15] it was 16.1 µM (inactive); in [16] it was 7.23 µM (inactive); in [17], 4.51 µM (inactive); in experiment [18], 4.38 µM (inactive). In experiment [19], the GI50 was 3.76 µM (inactive).
Take `CC(=O)Oc1ccc2c(c1OC(C)=O)CCC1C2=CC[C@]2(C)C(=O)CCC12` (stereo partly drawn): the GI50 is 15.6 µM (inactive) in experiment [1]; 14.1 µM (inactive) in [2]; 14.3 µM (inactive) in experiment [3]; 25.6 µM (inactive) in experiment [4]; 15.7 µM (inactive) in [5]; 3.18 µM (inactive) in [6]. Also, the GI50 in [7] was 9.12 µM (inactive); in experiment [8] it was 14 µM (inactive); in [9], 1.82 µM (inactive); in experiment [10], 12.5 µM (inactive); in experiment [11] it was 12.3 µM (inactive); in [12], 12.1 µM (inactive). Moreover, the GI50 in experiment [13] is < 0.01 µM (active); in experiment [14], 16.4 µM (inactive); in [15], 15.1 µM (inactive); in experiment [17], 10.5 µM (inactive); in experiment [18], 27.6 µM (inactive); in experiment [19], 4.92 µM (inactive). Moreover, the GI50 in experiment [20] was 14.2 µM (inactive).
`O=C1CS(=O)(=O)C(c2cccc(Oc3ccccc3)c2)N1c1cc(Cl)ccc1Cl` (stereo not drawn): the GI50 was 19 µM (inactive) in experiment [1]; 20.7 µM (inactive) in [2]; 19.8 µM (inactive) in experiment [3]; 23.1 µM (inactive) in [4]; 17.9 µM (inactive) in [5]; 34.4 µM (inactive) in experiment [6]. Also, the GI50 in experiment [7] is 26.5 µM (inactive); in experiment [8] it was 27.4 µM (inactive); in experiment [9] it was 23.7 µM (inactive); in [10], 22.4 µM (inactive); in experiment [11], 15.5 µM (inactive); in [12], 23.1 µM (inactive). Also, the GI50 in experiment [13] is 15.8 µM (inactive); in experiment [14] it was 21.9 µM (inactive); in [15] it was 29.6 µM (inactive); in experiment [16], 15.7 µM (inactive); in experiment [17] it was 35.2 µM (inactive); in [18], 25.7 µM (inactive). The GI50 in [19] is 20.2 µM (inactive); in experiment [20], 21 µM (inactive).
Take `CCCCCCN(C(=O)Oc1ccccc1)C(C#N)c1ccccc1` (stereo not drawn): the GI50 in experiment [1], in experiment [2], in experiment [3], in experiment [4], in experiment [5] and in experiment [6] was > 100 µM (inactive) in each case. In addition, the GI50 in experiment [7], in [8], in experiment [9], in [10], in [11] and in [12] was > 100 µM (inactive) each time. Further, the GI50 in experiment [13], in [15], in experiment [16], in [17], in experiment [18] and in experiment [19] was > 100 µM (inactive) in each case. Moreover, the GI50 in experiment [20] was > 100 µM (inactive).
For the molecule `C=C(Cl)C(=C)CCC(Cl)C(C)(C)Cl` (stereo not drawn), the GI50 in experiment [1], in experiment [2], in experiment [4], in experiment [5], in [6] and in [7] was > 100 µM (inactive) each time. The GI50 in experiment [8], in experiment [9], in experiment [10], in [11], in experiment [12] and in experiment [13] was > 100 µM (inactive) in each case. Besides, the GI50 in [14], in experiment [15], in [16], in experiment [17], in [18] and in [19] was > 100 µM (inactive) in each case. Also, in [20], the GI50 was > 100 µM (inactive).
With `CC(C)[C@@H]1NC(=O)[C@H]2N=C(O[C@@H]2C)[C@@H]2CCCN2C(=O)[C@H](Cc2ccccc2)NC(=O)[C@@H]2CSC(=N2)[C@@H](Cc2ccccc2)NC(=O)[C@@H]2CSC1=N2`, the GI50 in experiment [1], in experiment [2], in [3], in [4], in [5] and in [6] was > 50 µM (inactive) each time. Also, the GI50 in experiment [7] is > 50 µM (inactive); in experiment [8] it was 9.38 µM (inactive); in experiment [9] it was 29.1 µM (inactive); in [10] it was > 50 µM (inactive); in experiment [11], > 50 µM (inactive); in [12], > 50 µM (inactive). The GI50 in experiment [13], in [15], in experiment [16], in experiment [17], in [18] and in experiment [19] was > 50 µM (inactive) throughout. The GI50 in experiment [20] was 17.5 µM (inactive).
Take `COC(=O)[C@H](Cc1ccccc1)NC(=O)[C@H](Cc1ccccc1)NC(=O)CN1C(=O)[C@@H]2C3C=CC(C3)[C@@H]2C1=O`: the GI50 in experiment [1] was 16.6 µM (inactive) and 18.2 µM (inactive); in experiment [2] it was 18.2 µM (inactive) and 16.7 µM (inactive); in experiment [3], 14.8 µM (inactive) and 19.6 µM (inactive); in [4], 17.6 µM (inactive) and 16.4 µM (inactive); in [5], 20.1 µM (inactive) and 17.9 µM (inactive); in experiment [6] it was 16.5 µM (inactive) and 20.9 µM (inactive). Besides, the GI50 in experiment [7] was 19.3 µM (inactive) and 18.1 µM (inactive); in experiment [9], 16 µM (inactive) and 14.1 µM (inactive); in experiment [10] it was 21 µM (inactive) and 20.8 µM (inactive); in experiment [11] it was 16.4 µM (inactive) and 16.6 µM (inactive); in experiment [12], 13.2 µM (inactive) and 17.7 µM (inactive); in experiment [13], 18.2 µM (inactive) and 15 µM (inactive). Besides, the GI50 in experiment [14] was 21.2 µM (inactive) and 20.6 µM (inactive); in [15] it was 22 µM (inactive) and 19.8 µM (inactive); in experiment [16], 16.4 µM (inactive) and 17.6 µM (inactive); in [17], 19.8 µM (inactive) and 18.7 µM (inactive); in experiment [18] it was 33 µM (inactive) and 22.2 µM (inactive); in experiment [19] it was 16.6 µM (inactive) and 14.3 µM (inactive). Also, the GI50 in [20] is 18.7 µM (inactive) and 17.9 µM (inactive).
As to `CC(C)CC(N)C(=O)NC(C(=O)NC(CCCNC(=N)N)C(=O)NC(CS)C(=O)NC1CSCC(C(=O)NC(Cc2ccccc2)C(=O)NC(C(=O)NC(CCCNC(=N)N)C(=O)O)C(C)C)NC(=O)C2CCCN2C(=O)C(CCCCN)NC(=O)C2CCCN2C(=O)C2CCCN2C(=O)C(Cc2ccc(O)cc2)NC(=O)C(CO)NC(=O)C(CCCCN)NC(=O)C(C(C)O)NC(=O)C(Cc2c[nH]c3ccccc23)NC1=O)C(C)C` (stereo not drawn), the GI50 in [1], in [2], in experiment [3], in experiment [4], in [5] and in experiment [6] was > 25 µM (inactive) in each case. The GI50 in experiment [7], in experiment [8], in [9], in [10], in [11] and in experiment [12] was > 25 µM (inactive) in each case. Further, the GI50 in experiment [13], in experiment [15], in [16], in experiment [17], in experiment [18] and in [19] was > 25 µM (inactive) throughout. Also, the GI50 in experiment [20] was > 25 µM (inactive).

By GI50 is commonly meant the concentration at which growth is held to half of that of the control.

Source of the values: ChEMBL document CHEMBL1201862, “PubChem BioAssay data set” (2004).
